From patent publication US5824299A, “Modulation of endothelial cell proliferation with IP-10” (President & Fellows of Harvard College, priority 1995, dated 1998) come the findings set out here.

This assay has as its target T1, murine IP10-AP (IP-10 alkaline phosphatase fusion protein) (UniProt P05187+P17515).
T1 construct: made in house; host or cells: NIH-3T3 clone 18.G5 (conditioned medium)
Nature of the assay: glycosaminoglycan inhibition of IP10-AP binding to A20 B cells. The note with it: 15 nM mIP10-AP, 2 hours on ice; for inhibition of IP10-AP binding: at a concentration 100× below 1 mg/ml. As for the experimental part:
107 A20 cells were incubated with 15 nM mIP10-AP in the presence of the indicated concentrations of heparin (H), heparan sulfate (HS), chondroitin sulfate B (CSB) and chondroitin sulfate A (CSA) for 2 hours on ice. Cells were then washed and bound IP10-AP assayed.
Binding Assays. For non-adherent cells, […] were washed 1× with ice-cold binding buffer (HBSS/10 mM Hepes/0.1% ETSA) and resuspended in the indicated concentration of IP10-AP and competitors in a total of […] ice-cold binding buffer. Binding was carried out for 2 hrs on ice with occasional mixing. Cells were washed 5× with ice cold binding buffer by repeated centrifugation at 4° C. Cell bound AP activity was determined by lysing cells in […] 10 mM Tris (pH 8.0)/1% Triton X-100, heating at 65° C. for 10 min to inactivate cellular alkaline phosphatase, and then centrifuging at 14,000×g for 10 min. 50 ml of the soluble lysate was then mixed with 50 ml 2× SEAP buffer in a 96 well plate at room temperature and the colormetric product was assayed in a kinetic plate reader at A405. For adherent cells with higher numbers of binding sites, binding was determined in 6 well cluster plates. Cells were washed 2× with ice-cold binding buffer and incubated with the indicated concentration of IP10-AP and competitor in a total of 500 ml of ice-cold binding buffer for 2 hrs in the cold room on a rocker platform. […] Non-specific binding was determined in one of two ways. For the calculation of the equilibrium constant, non-specific binding was determined by adding […] at each concentration of IP10-AP and performing the binding experiments in parallel exactly as described above. Specific binding was determined by subtracting background from total binding. Specific binding data was analyzed with the binding equation B=(Bmax×F)/(Kd+F) (where B is bound ligand and F is free ligand) (28) using the program KaleidaGraph on a Macintosh computer. […] 125I-IP10 binding to cells was performed essentially as described above for IP10-AP binding except the cell pellet with bound IP-10 was counted in a gamma-counter. […]

T1 sequence (P17515+P05187 fused): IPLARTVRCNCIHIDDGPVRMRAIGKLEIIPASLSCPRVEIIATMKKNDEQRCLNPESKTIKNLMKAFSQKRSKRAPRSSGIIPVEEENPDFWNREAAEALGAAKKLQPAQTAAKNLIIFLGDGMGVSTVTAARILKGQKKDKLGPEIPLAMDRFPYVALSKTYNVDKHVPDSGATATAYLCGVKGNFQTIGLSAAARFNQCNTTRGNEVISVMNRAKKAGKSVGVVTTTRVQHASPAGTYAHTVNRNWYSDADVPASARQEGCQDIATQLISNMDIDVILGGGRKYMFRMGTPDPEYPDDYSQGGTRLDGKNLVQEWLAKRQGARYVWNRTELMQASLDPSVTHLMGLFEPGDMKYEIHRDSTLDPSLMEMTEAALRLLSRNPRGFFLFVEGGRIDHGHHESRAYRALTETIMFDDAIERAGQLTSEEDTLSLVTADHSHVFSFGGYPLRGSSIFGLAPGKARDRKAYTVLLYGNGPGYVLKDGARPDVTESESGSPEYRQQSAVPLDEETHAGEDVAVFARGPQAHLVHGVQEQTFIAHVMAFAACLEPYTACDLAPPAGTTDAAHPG

Regarding chondroitin sulfate A, the “effect on IP10-AP binding” value (1 mg/ml) is given as “no effect”. Regarding heparan sulfate, the “inhibition of IP10-AP binding” value is “complete inhibition”.

On to heparin, for which the “inhibition of IP10-AP binding” value is listed as “complete inhibition”.
